The target in this assay is SYK (Homo sapiens, UniProt P43405). Nature of the assay: Pre-clinical kinase inhibition, SYK. The class given is biochemical. The note with it: pre-clinical studies. From the text: A formulation of the disclosure comprising 2-(1-(4-((4-(4-hydroxypiperidin-1-yl)phenyl)amino)-5-oxo-5,6-dihydropyrimido[4,5-d]pyridazin-2-yl)piperidin-4-yl)acetonitrile comprises a potent inhibitor of Spleen Tyrosine Kinase (SYK) and Janus Kinases (JAK).

Here are results for one molecule from patent US12036224B2, “Formulations, methods, kits, and dosage forms for treating atopic dermatitis and for improved stability of an active pharmaceutical ingredient” (Libertas Bio, Inc., priority 2017, dated 2024).

For `N#CCC1CCN(c2nc(Nc3ccc(N4CCC(O)CC4)cc3)c3c(=O)[nH]ncc3n2)CC1` [Compound 1, 2-(1-(4-((4-(4-hydroxypiperidin-1-yl)phenyl)amino)-5-oxo-5,6-dihydropyrimido[4,5-d]pyridazin-2-yl)piperidin-4-yl)acetonitrile], the “IC50 against SYK” value was “low nM”.
